Assay results as given in patent publication US20240197891A1, “PHARMACEUTICAL COMPOSITIONS COMPRISING POH DERIVATIVES” (UNIVERSITY OF SOUTHERN CALIFORNIA, priority 2021, published 2024).
Entries after “also recorded” stand apart in the source; their conditions may differ. Each block holds one compound with its values, some of them ahead of it.

Legend:
U251 human glioma cells = experiment: MTT cytotoxicity assay, U251 cells
Source text: (§1) In vitro efficacy of the present composition can be determined using methods well known in the art. For example, the cytotoxicity of the present monoterpene (or sesquiterpene) and/or the therapeutic agents may be studied by MTT [3-(4,5-dimethylthiazol-2-yl)-2,5-diphenyl tetrazolium bromide] cytotoxicity assay. MTT assay is based on the principle of uptake of MTT, a tetrazolium salt, by metabolically active cells where it is metabolized into a blue colored formazan product, which can be read spectrometrically. J. of Immunological Methods 65: 55 63, 1983. The cytotoxicity of the present monoterpene (or sesquiterpene) derivative and/or the therapeutic agents may be studied by colony formation assay. Functional assays for inhibition of VEGF secretion and IL-8 secretion may be performed via ELISA. Cell cycle block by the present monoterpene (or sesquiterpene) derivative and/or the therapeutic agents may be studied by standard propidium iodide (PI) staining and flow cytometry. Invasion inhibition may be studied by Boyden chambers. In this assay a layer of reconstituted basement membrane, Matrigel, is coated onto chemotaxis filters and acts as a barrier to the migration of cells in the Boyden chambers. Only cells with invasive capacity can cross the Matrigel barrier. Other assays include, but are not limited to cell viability assays, apoptosis assays, and morphological assays.
(§2) To compare the cytotoxicity of Rolipram POH Carbamate (POH-Rolipram) (e.g., synthesized by the method in Example 5) with rolipram, […] inducing differentiation and apoptosis in glioma cells, A172, U87, U251 and LN229 human glioma cells were treated with either POH-Rolipram or rolipram for 48 hours.
(§3) MTT cytotoxicity assays were carried out after cells were treated with the TMZ-POH conjugate. The MTT cytotoxicity assays were carried out as described in Chen T C, et al. Green tea epigallocatechin gallate enhances therapeutic efficacy of temozolomide in orthotopic mouse glioblastoma models. Cancer Lett. 2011 Mar. 28; 302(2):100-8.

[1] = test system: human malignant glioma cells U87, A172 and U251; experiment: MTT cytotoxicity assays on U87, A172 and U251 cells (stated jointly); assay type: cell-based
Method: J. of Immunological Methods 65: 55 63, 1983. […] Invasion inhibition may be studied by Boyden chambers.
Then U87, A172 and U251 cells were treated with dimethyl celecoxib bisPOH carbamate (POH-DMC) (e.g., synthesized by the method in Example 1), and the MTT cytotoxicity assays performed (FIG. 2).
Then TMZ-resistant glioma cell lines U87, A172 and U251 cells were treated with temozolomide POH carbamate (POH-TMZ) (e.g., synthesized by the method in Example 3).

[2] = test system: TMZ sensitive (U251) cells; experiment: Colony forming assay, TMZ sensitive U251 cells; assay type: cell-based, human
Method: (§4) Colony forming assays were carried out after cells were treated with TMZ alone, POH alone, and the TMZ-POH conjugate. […] Cancer Lett. 2011 Mar. 28; 302(2):100-8.

[3] = test system: USC-02 glioma cancer stem cells; experiment: MTT cytotoxicity assay, USC-02 glioma cancer stem cells; assay type: cell-based; details: USC-02, MTT
Source text: (§5) Cancer Lett. 2011 Mar. 28; 302(2):100-8.

[4] = test system: ER stress (CHOP) in TMZ sensitive and resistant U251 glioma cells; experiment: Western blot of ER stress in U251 glioma cells; assay type: cell-based, human; details: 18 hr
Method: Western blots were performed after TMZ sensitive and resistant glioma cells were treated with the TMZ-POH conjugate for 18 hr. […] Activation of the proapoptotic protein CHOP was shown at concentrations as low as 60 uM of TMZ-POH.

[5] = test system: USC-04 glioma cancer stem cells; experiment: MTT cytotoxicity assay, USC-04 glioma cancer stem cells; assay type: cell-based; details: USC-04, MTT
Source text: as §5

[6] = test system: TMZ resistant (U251TR) U251 cells; experiment: Colony forming assay, TMZ resistant U251TR cells; assay type: cell-based, human
Method: as §4

[7] = test system: tumor brain endothelial cells (TuBEC); experiment: MTT cytotoxicity assay, tumor brain endothelial cells; assay type: cell-based
Source text: as §5

normal astrocytes = experiment: MTT cytotoxicity assay, normal astrocytes; details: listed as TMZ-POH
Method: as §3

[8] = test system: brain endothelial cells (BEC); experiment: MTT cytotoxicity assay, brain endothelial cells; assay type: cell-based
Source text: as §5

[9] = test system: TMZ resistant cells (U251TR); experiment: MTT cytotoxicity assay, U251TR cells
Method: as §3

U87 human glioma cells = experiment: MTT cytotoxicity assay, U87 cells; assay type: cell-based; details: U-87 cells, 48 hours
Source text: as §1, with “assays. […]” for “assays.”

A172 human glioma cells = experiment: MTT cytotoxicity assay, A172 cells; assay type: cell-based; details: A-172 cells, 48 hours
Source text: as §1, with “assays. […]” for “assays.”

[10] = test system: A172, U87, U251 and LN229 human glioma cells; experiment: MTT assay, POH-Rolipram versus rolipram across glioma cell types (stated jointly); assay type: cell-based; details: each of A172, U87, U251, LN229; 48 hours
Source text: as §1, with “assays. […]” for “assays.”

LN229 human glioma cells = experiment: cells
Source text: as §1, §2

[11] = test system: subcutaneous U-87 gliomas; experiment: Nude mouse subcutaneous glioma model; assay type: in vivo; details: local application via Q-tip, 1 cc/application/day, 8 weeks; 60 days
Method: Inhibition of tumor growth by butyryl-POH was studied in a nude mouse subcutaneous glioma model. Mice were injected with U-87 glioma cells (500,000 cells/injection) and allowed to form a palpable nodule over two weeks. Once palpable nodule was formed, the mice were treated with local application of various compounds as indicated in FIGS. 9A and 9B via a Q-tip (1 cc/application/day) over a period of 8 weeks.

SMILES: C=C(C)C1CC=C(COC(=O)NC(=O)c2ncn3c(=O)n(C)nnc23)CC1 (stereo not shown) [POH-TMZ]
cytotoxicity (MTT) (U251 human glioma cells; TMZ sensitive U251 cells, Example 9): demonstrated cytotoxicity
cytotoxicity / kill rates (MTT) [1]: substantially higher kill rates
cytotoxicity (colony forming assay) ([2]; TMZ sensitive U251 cells): demonstrated cytotoxicity
potency in the colony forming assays compared to POH alone ([2]; U251 and U251TR cells): substantially greater potency compared to POH alone
IC50 [3]: 60 µM
ER stress (ERS) induction ([4]; TMZ sensitive and resistant U251 cells): induces ER stress
lowest concentration showing activation of the proapoptotic protein CHOP ([4]; western blot): 60 µM
IC50 [5]: 150 µM
cytotoxicity (colony forming assay) [6]: demonstrated cytotoxicity
cytotoxicity (MTT) [7]: did not induce significant cytotoxicity
cytotoxicity (MTT) (normal astrocytes): not towards normal astrocytes; also recorded: did not induce significant cytotoxicity
cytotoxicity (MTT) ([8]; confluent BEC): did not induce significant cytotoxicity
cytotoxicity (MTT) ([8]; subconfluent BEC, high concentrations): Mild to moderate cytotoxicity
cytotoxicity (MTT) [9]: demonstrated cytotoxicity

IC50 (LN229 human glioma cells; LN229 cells, MTT, 48 hours): 100 µM
SMILES: C=C(C)C1CC=C(COC(=O)N2CC(c3ccc(OC)c(OC4CCCC4)c3)CC2=O)CC1 (stereo not shown) [POH-rolipram, 4-(3-cyclopentyloxy-4-methoxyphenyl)-2-oxo-pyrrolidine-1-carboxylic acid 4-isopropenyl cyclohex-1-enylmethyl ester]
cytotoxicity at 100 uM (U251 human glioma cells): ~100%
IC50 (U251 human glioma cells; U251 cells, MTT, 48 hours): 50 µM
IC50 (U87 human glioma cells): 180 µM
IC50 (A172 human glioma cells): 50 µM
kill rates (MTT) [10]: substantially higher kill rates compared to rolipram alone
cytotoxicity at 10 uM (LN229 human glioma cells): ~100%

SMILES: C=C(C)C1CC=C(COC(=O)CCC)CC1 (stereo not shown) [Butyryl-POH]
inhibition of tumor growth [11]: greatest inhibition of tumor growth
